The source of these data is US20090088483A1, “AQUEOUS SUSPENSIONS OR DISPERSIONS OF INORGANIC PIGMENTS CONTAINING A MIXTURE CONSISTING OF DIALDEHYDES AND FORMALDEHYDE CLEAVERS” (priority 2005, published 2009).

Each structure is given as a SMILES string.

Data set [1] concerns microbe spectrum of a microbially contaminated slurry. The data set is described as follows: quantitative test of microbial count reduction in a microbially contaminated slurry. In kind it is cell-based. Set-up: unit not given here. The conditions noted are these: PCC slurry. On the procedure: Here, the quantitative test was carried out to determine how rapidly (1 hour to 7 days) the stated amounts of active substance reduce the microbial count of a microbially contaminated slurry.

Data set [2] has as its system microbially contaminated (alkaline) slurry. To be noted: cited from earlier work.
The conditions of data set [3]: cited from earlier work.

Regarding `O=CCCCC=O` [GDA, glutaraldehyde], the microbial count in data set [1] (10 ppm GDA, 1 hour) is 1.2 * 10^5; in data set [1] (10 ppm GDA, 2 hours) it was 1.3 * 10^4; in data set [1] (10 ppm GDA, 3 hours), 2.6 * 10^3; in data set [1] (10 ppm GDA, 24 hours) it was under 100; in data set [1] (10 ppm GDA, 3 days), 4.7 * 10^2; in data set [1] (10 ppm GDA, 7 days), 3.5 * 10^5. The microbial count in data set [1] (20 ppm GDA, 1 hour) was 2.2 * 10^3; in data set [1] (20 ppm GDA, 2 hours) it was 3.0 * 10^2; in data set [1] (20 ppm GDA, 3 hours) it was under 100; in data set [1] (20 ppm GDA, 24 hours) it was under 100; in data set [1] (20 ppm GDA, 3 days), under 100; in data set [1] (20 ppm GDA, 7 days), 1.7 * 10^3. For the same compound, the “time to sanitize a microbially contaminated (alkaline) slurry” value in data set [2] was 1 to 4 h. The “degradation of active substance in the slurry” value in data set [3] (in the slurry after a few days) was “completely degraded”.
With `OCOCCOCO` [EDDM, (ethylenedioxy)dimethanol], the microbial count in data set [1] (100 ppm EDDM, 1 hour) is recorded as 1.6 * 10^5; in data set [1] (100 ppm EDDM, 2 hours), 1.7 * 10^5; in data set [1] (100 ppm EDDM, 3 hours) it was 1.6 * 10^5; in data set [1] (100 ppm EDDM, 24 hours), 3.4 * 10^4; in data set [1] (100 ppm EDDM, 3 days) it was 3.3 * 10^4; in data set [1] (100 ppm EDDM, 7 days), 5.6 * 10^3. For the same compound, the microbial count in data set [1] (200 ppm EDDM, 1 hour) is listed as 1.6 * 10^5; in data set [1] (200 ppm EDDM, 2 hours) it was 1.1 * 10^5; in data set [1] (200 ppm EDDM, 3 hours) it was 1.2 * 10^5; in data set [1] (200 ppm EDDM, 24 hours) it was 2.9 * 10^4; in data set [1] (200 ppm EDDM, 3 days), 2.3 * 10^4; in data set [1] (200 ppm EDDM, 7 days) it was 1.7 * 10^3. The “decline in active substance at elevated temperatures” value in data set [3] (50-80° C., over a period of a few days, alkaline pH) was “no significant decline”.
